Measurements from publication PMC8105289 (European journal of medicinal chemistry, 2021).
Marks after values point to notes of the source that are not given here.

Tests used:
potentiometric titration = details: not told
[1] = logP / logD7.4 by potentiometric titration; details: for logD: n-octanol/aqueous buffer, pH 7.4; for logP: n-octanol/water
[2] = Parallel artificial membrane permeability assay; details: for Papp: PAMPA; for PAMPA logPapp: log of the apparent permeability coefficient; for PAMPA % retention (membrane retention): Corning Gentest pre-coated PAMPA plate, HPLC-UV
[3] = pKa by potentiometric titration
shake-flask = details: not told
[4] = logD7.4 by shake-flask method; details: for logD: n-octanol/aqueous buffer, pH 7.4
[5] = ionic strength adjusted water (0.15 M KCl), pKa units higher than the pKa value of 9
[6] = potentiometric titration, Sirius T3, 0.15 M KCl
[7] = potentiometric titration, Sirius T3
[8] = ionic strength adjusted water (0.15 M KCl), pKa, potentiometric titration, Sirius T3, 0.15 M KCl

| log partition n-octanol / aqueous buffer pH 7.4 (potentiometric titration) | log partition n-octanol / water (0.15 M KCl) (potentiometric titration) | logD [1] | logP [1] | Papp [2] | PAMPA logPapp [2] | log partition n-octanol / aqueous buffer pH 7.4 (shake-flask) | logD [4] | SMILES | further results |
| --- | --- | --- | --- | --- | --- | --- | --- | --- | --- |
| 1.06 log10 concentration ratio | 2.55±0.04 log10 concentration ratio | 1.06 | 2.55 ± 0.04 | 4.09 ×10⁻⁶ cm/s | −5.39 | – | – | O=S(=O)(Nc1cn(-c2ccccc2)nn1)c1ccccc1 [Compound 31, N-(1-Phenyl-1H-1,2,3-triazol-4-yl)benzenesulfonamide] | – |
| 1.03 log10 concentration ratio | 1.03±0.01 log10 concentration ratio | 1.03 | 1.03 ± 0.01 | 3.66 ×10⁻⁶ cm/s | −5.4 | – | – | CS(=O)(=O)NC1(CCc2ccccc2)CS(=O)(=O)C1 [Compound 24, N-(1,1-Dioxido-3-phenethylthietan-3-yl)methanesulfonamide] | pKa [3, 5]: > 5 |
| 0.69 log10 concentration ratio | 1.72±0.01 log10 concentration ratio | – | – | – | −5.42 | – | – | CN(C)S(=O)(=O)Nc1cn(-c2ccccc2)nn1 [Compound 32, N-(1-Phenyl-1H-1,2,3-triazol-4-yl)-N,N-dimethylaminesulfonamide] | pKa [3, 6]: 6.42±0.01; logP [1, 7]: 1.72±0.01 |
| 1.82 log10 concentration ratio | 1.83±0.05 log10 concentration ratio | 1.82 | 1.83 ± 0.05 | 4.43 ×10⁻⁶ cm/s | −5.35 | – | – | CN(C)S(=O)(=O)NC1(CCc2ccccc2)CS(=O)(=O)C1 [Compound 26, 3-[(Dimethylsulfamoyl)amino]-3-(2-phenylethyl)-1lambda6-thietane-1,1-dione] | PAMPA % retention (membrane retention) [2]: 0.105% |
| 0.99 log10 concentration ratio | 1.76±0.03 log10 concentration ratio | 0.99 | 1.76 ± 0.03 | 5.79 ×10⁻⁶ cm/s | −5.24 | – | – | O=S(=O)(Nc1cc(-c2ccccc2)on1)c1ccccc1 [Compound 28, N-(5-Phenylisoxazol-3-yl)benzenesulfonamide] | – |
| 0.42 log10 concentration ratio | 0.85±0.01 log10 concentration ratio | – | – | – | – | – | – | CN(C)S(=O)(=O)Nc1cc(-c2ccccc2)on1 [Compound 29, N-(5-Phenylisoxazol-3-yl)-N,N-dimethylaminesulfonamide] | pKa [3, 6]: 5.62±0.02; logP [1, 7]: 0.85±0.01; PAMPA % retention (membrane retention) [2]: 0.131% |
| −0.42 log10 concentration ratio | 0.58±0.02 log10 concentration ratio | -0.42 | 0.58 ± 0.02 | 1.16 ×10⁻⁶ cm/s | −5.94 | – | – | CS(=O)(=O)Nc1cc(-c2ccccc2)on1 [Compound 27, N-(5-Phenylisoxazol-3-yl)methanesulfonamide] | – |
| – | – | – | – | – | – | 1.89 log10 concentration ratio | 1.89 | O=S1(=O)CC(CCc2ccccc2)(NS(=O)(=O)c2ccccc2)C1 [Compound 25, N-(1,1-Dioxido-3-phenethylthietan-3-yl)benzenesulfonamide] | – |
| 0.06 log10 concentration ratio | 1.16±0.03 log10 concentration ratio | 0.06 | 1.16 ± 0.03 | 2.42 ×10⁻⁶ cm/s | −5.62 | – | – | CS(=O)(=O)Nc1cn(-c2ccccc2)nn1 [Compound 30, N-(1-Phenyl-1H-1,2,3-triazol-4-yl)methanesulfonamide] | – |

Continued, molecule first:

| SMILES | log partition n-octanol / aqueous buffer pH 7.4 (potentiometric titration) | log partition n-octanol / water (0.15 M KCl) (potentiometric titration) | logD [1] | logP [1] | Papp [2] | PAMPA logPapp [2] | log partition n-octanol / aqueous buffer pH 7.4 (shake-flask) | logD [4] | further results |
| --- | --- | --- | --- | --- | --- | --- | --- | --- | --- |
| CN(C)S(=O)(=O)NC1(CCc2ccccc2)COC1 [Compound 17, N,N-Dimethyl-[3-(2-phenylethyl)oxetane-3-yl]sulfamoyl-amine] | – | – | – | – | 10.2 ×10⁻⁶ cm/s | −4.99 | 1.96 log10 concentration ratio | 1.96 | – |
| CN(C)S(=O)(=O)NC1(CCc2ccccc2)CS(=O)C1 (stereo not drawn) | – | – | – | – | – | – | 1.45 log10 concentration ratio | – | – |
| CC(=O)NC1(CCc2ccccc2)CS(=O)(=O)C1 [Compound 14, N-(1,1-Dioxido-3-phenethylthietan-3-yl)acetamide] | – | – | – | – | 2.11 ×10⁻⁶ cm/s | −5.68 | 1.18 log10 concentration ratio | 1.18 | pKa [3, 8]: > 12 |
| CN(C)S(=O)(=O)NC1(CCc2ccccc2)CSC1 [Compound 20, N,N-Dimethyl-[3-(2-phenylethyl)thietan-3-yl]sulfamoyl-amine] | – | – | – | – | 11.4 ×10⁻⁶ cm/s | −4.9 | 2.83 log10 concentration ratio | 2.83 | PAMPA % retention (membrane retention) [2]: 0.373% |
| O=S(=O)(NC1(CCc2ccccc2)COC1)c1ccccc1 [Compound 16, N-(3-Phenethyloxetan-3-yl)benzenesulfonamide] | – | – | – | – | 7.06 ×10⁻⁶ cm/s | −5.2 | 2.76 log10 concentration ratio | 2.76 | PAMPA % retention (membrane retention) [2]: 0.260% |
| CN(C)S(=O)(=O)N[C@]1(CCc2ccccc2)C[S@+]([O-])C1 [Compound 23, cis-3-[(Dimethylsulfamoyl)amino]-3-(2-phenylethyl)-1lambda4-thietan-1-one] | – | – | – | – | – | −5.47 | – | – | logD7.4 ([4]; n-octanol/aqueous buffer pH 7.4, shake-flask assay run by Analiza): 1.45^†; pKa [3, 6]: 10.33±0.02 |
| O=S1CC(CCc2ccccc2)(NS(=O)(=O)c2ccccc2)C1 (stereo not drawn) | – | – | – | – | – | – | 0.76 log10 concentration ratio | – | – |
| CS(=O)(=O)NC1(CCc2ccccc2)CSC1 [Compound 18, N-(3-Phenethylthietan-3-yl)methanesulfonamide] | – | – | – | – | 14.6 ×10⁻⁶ cm/s | −4.8 | 2.44 log10 concentration ratio | 2.44 | pKa [3, 5]: > 5 |
| O=S(=O)(NC1(CCc2ccccc2)CSC1)c1ccccc1 [Compound 19, N-(3-Phenethylthietan-3-yl)benzenesulfonamide] | – | – | – | – | – | – | 2.96 log10 concentration ratio | 2.96 | pKa [3, 8]: > 12 |
| CS(=O)(=O)N[C@]1(CCc2ccccc2)C[S@+]([O-])C1 [Compound 21, cis-N-(1-Oxido-3-phenethylthietan-3-yl)methanesulfonamide] | – | – | – | – | – | – | – | – | pKa units higher than the pKa value of 9 [3]: > 5; pKa [3, 6]: 9.87±0.01; logP [1, 7]: 0.88±0.02 |
| CC1(NS(=O)(=O)CCc2ccccc2)COC1 [Compound 13, N-(3-Methyloxetan-3-yl)-2-phenylethane-1-sulfonamide] | 1.58 log10 concentration ratio | 1.58±0.06 log10 concentration ratio | 1.58 | 1.58 ± 0.06 | 6.79 ×10⁻⁶ cm/s | −5.17 | – | – | ΔlogPcyclohexane (ΔlogP; logPoctanol-water − logPcyclohexane-water): 1.87 ± 0.04; ΔlogPheptane (ΔlogP; logPoctanol-water − logPheptane-water): 1.60 ± 0.05; ΔlogPtoluene (ΔlogP; logPoctanol-water − logPtoluene-water): 0.43 ± 0.04 |
| CS(=O)(=O)NC1(CCc2ccccc2)CS(=O)C1 (stereo not drawn) | 0.87 log10 concentration ratio | 0.88±0.02 log10 concentration ratio | – | – | – | – | – | – | – |
